According to US9717792B2, “Combination therapy for cancer using HSP27 inhibitor and EGFR tyrosine kinase inhibitors or anti-folates” (The University Of British Columbia, priority 2012, dated 2017):

Key:
Hsp27 mRNA = Hsp27 mRNA expression by quantitative RT-PCR in A549 cells; conditions: 5 or 10 μM Erlotinib for 24 or 48 hours; normalized to GAPDH mRNA
Method: Hsp27 mRNA expression was analyzed by quantitative RT-PCR. Hsp27 mRNA levels were normalized to levels of GAPDH mRNA. Bars, SD. ** and *, differ from control (P<0.01 and P<0.05, respectively).

HCC827 cells = test: Western blot of protein levels in HCC827 parental cells; assay type: cell-based, human; conditions: erlotinib 2.5 nanomolar; vs non-treated cells
Source text: Levels of p-EGFR(Tyr1068), EGFR, Hsp27, Cleaved PARP, Cleaved and whole Caspase-3, and beta-actin (cell protein control) were detected.

Hsp27 OE A549 cells = test: Hsp27-overexpressing A549 cells: western blotting and flow cytometry after Erlotinib; assay type: cell-based, human
Method: The cell viability was determined by crystal violet assay.
The cells undergoing apoptosis (subG0/G1 fraction) were quantified using flow cytometry. FIGS. 4B and C.
(§1) Cleaved PARP, p-EGFR(Tyr1068), EGFR, p-Hsp27(Ser82), Hsp27, and Beta-actin were assayed.

A549 lung cancer cells = test: Western blot of protein levels in A549 cells; assay type: cell-based, human
Method: Western blots: To perform Westerns, cell lysates were prepared under non-denaturing conditions. Briefly, the cell lysates were to immunoprecipition, and subsequently immunoblotted using antibody and visualized via electrophoresis and autoradiogram.
48 and 72 hours of exposure.
Protein expression was analyzed by western blotting. […] Flow cytometry was used to quantify the percentage of cells in each cell cycle phase.
as §1
Western gels were run on cell protein prepared under standard non-denaturing conditions, and relative levels of p-Hsp27(Ser82), Hsp27, cleaved PARP, and beta-actin were detected using commercial antibodies from Cell Signalling (Danvers, USA). Protein levels from zero to 48 hours for a 1 microMolar pemetrexed exposure were measured.
72 h later, cell viability was determined by crystal violet assay. […] Protein levels were also determined in these cells by immunoblotting.

[1] = target: PKC-dependent phosphorylation of Hsp27 (Homo sapiens, UniProt P04792); conditions: cited from earlier work
Sequence of PKC-dependent phosphorylation of Hsp27 (P04792 whole entry): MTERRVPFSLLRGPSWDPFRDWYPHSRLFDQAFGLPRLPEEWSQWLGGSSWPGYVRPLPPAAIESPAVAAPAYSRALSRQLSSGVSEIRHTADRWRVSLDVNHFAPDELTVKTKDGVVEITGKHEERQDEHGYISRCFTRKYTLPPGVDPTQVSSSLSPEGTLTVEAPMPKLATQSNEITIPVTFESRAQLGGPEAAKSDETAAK

[2] = A549 OE, erlotinib 0 to 20 micromolar, 72 hours
[3] = A549, erlotinib 0 to 20 micromolar, 72 hours

With `C#Cc1cccc(Nc2ncnc3cc(OCCOC)c(OCCOC)cc23)c1` [Erlotinib, erlotinib] the “Hsp27 mRNA expression” value (Hsp27 mRNA) was “increased Hsp27 expression”, the “p-EGFR (Tyr068) (Western)” value (HCC827 cells) was “decrease” and the “protein levels of P-Hsp27(ser82), Hsp27 (Western)” value (HCC827 cells) was “increased”. The “Cleaved PARP (Western)” value (Hsp27 OE A549 cells; [2]) was “increased”, the “p-EGFR(Tyr1068) (Western)” value (Hsp27 OE A549 cells; [2]) was “decrease” and the “p-Hsp27(Ser82) (Western)” value (Hsp27 OE A549 cells; [2]) was “dose-dependent increase”. The “apoptotic rate in cells with Hsp27 overexpression” value (Hsp27 OE A549 cells; Hsp27 OE A549 vs Empty A549, varying levels of erlotinib) was “decreased apoptotic rate”, the “amounts of EGFR, Hsp27 and p-Hsp27 (Western Blot)” value (A549 lung cancer cells; 10 μM Erlotinib, 1, 6, 24, 48 and 72 hours) was “Increasing amounts” and the “cleaved PARP (Western Blot)” value (A549 lung cancer cells; 10 μM Erlotinib, 1 to 72 hours) was “observed at all times following 24 hours of treatment”. For the same compound, the “p-EGFR (Tyr 1068) (Western Blot)” value (A549 lung cancer cells; 10 μM Erlotinib, 1 to 72 hours) was “not observed following treatment”, the “p-Hsp27, Hsp27, p-EGFR, EGFR, cleaved PARP (Western Blot), repeat” value (A549 lung cancer cells; 48 hours, erlotinib 2.5, 5 and 10 μM) was “Qualitatively similar results” and the “Cleaved PARP (Western)” value (A549 lung cancer cells; [3]) was “increased”. For the same compound, the “p-EGFR(Tyr1068) (Western)” value (A549 lung cancer cells; [3]) was “decrease”.
For `CCc1cc(-c2oncc2-c2ccc(OC)cc2)c(O)cc1OC` [KRIBB3, 5-(5-Ethyl-2-hydroxy-4-methoxyphenyl)-4-(4-methoxyphenyl)isoxazole], the IC50 [1] is given as 50 nM.
With `Nc1nc2[nH]cc(CCc3ccc(C(=O)N[C@@H](CCC(=O)O)C(=O)O)cc3)c2c(=O)[nH]1` [pemetrexed] the “pHsp27 and cleaved PARP signals (Western)” value (A549 lung cancer cells; pemetrexed 0, 0.25, 0.5, 1.0 microMoles, zero to 48 hours) was “increase with dose and are greatest at 48 hours”.
